Laboratory results from ChEMBL document CHEMBL5291721, “A preclinical secondary pharmacology resource illuminates target-adverse drug reaction associations of marketed drugs” (Nat Commun, 2023).

Experiments:
[1] = target: 3',5'-cyclic-AMP phosphodiesterase 4A (Homo sapiens, UniProt P27815); format: functional
[2] = target: T1, Muscarinic acetylcholine receptor M1 (Homo sapiens, UniProt P11229); format: functional, cell-based
T1 sequence (P11229 whole entry): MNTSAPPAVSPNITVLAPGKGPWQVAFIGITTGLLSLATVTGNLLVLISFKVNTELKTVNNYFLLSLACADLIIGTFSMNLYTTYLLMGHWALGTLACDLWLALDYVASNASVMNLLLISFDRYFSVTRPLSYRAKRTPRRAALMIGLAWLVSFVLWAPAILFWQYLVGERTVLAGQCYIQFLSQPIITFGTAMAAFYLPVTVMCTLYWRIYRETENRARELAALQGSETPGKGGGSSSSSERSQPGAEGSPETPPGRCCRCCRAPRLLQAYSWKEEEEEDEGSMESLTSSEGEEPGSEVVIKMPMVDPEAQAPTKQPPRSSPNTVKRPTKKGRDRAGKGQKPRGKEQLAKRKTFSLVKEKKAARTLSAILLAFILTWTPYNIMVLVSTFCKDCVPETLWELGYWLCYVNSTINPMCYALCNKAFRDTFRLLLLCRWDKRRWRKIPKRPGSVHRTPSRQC

[3] = target: T2, Alpha-1A adrenergic receptor (Homo sapiens, UniProt P35348); format: functional, cell-based
T2 sequence (P35348 whole entry): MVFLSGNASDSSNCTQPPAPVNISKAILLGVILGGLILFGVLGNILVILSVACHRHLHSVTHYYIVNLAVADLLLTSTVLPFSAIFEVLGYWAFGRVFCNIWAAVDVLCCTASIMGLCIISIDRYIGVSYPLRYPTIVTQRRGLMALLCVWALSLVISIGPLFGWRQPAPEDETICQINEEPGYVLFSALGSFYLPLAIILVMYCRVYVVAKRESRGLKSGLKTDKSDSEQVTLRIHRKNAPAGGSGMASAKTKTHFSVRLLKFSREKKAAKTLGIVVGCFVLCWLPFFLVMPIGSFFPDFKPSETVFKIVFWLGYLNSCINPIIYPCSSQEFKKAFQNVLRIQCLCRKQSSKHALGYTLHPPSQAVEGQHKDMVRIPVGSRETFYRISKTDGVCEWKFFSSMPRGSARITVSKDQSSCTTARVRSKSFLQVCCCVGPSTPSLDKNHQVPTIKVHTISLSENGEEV

[4] = target: T1, Muscarinic acetylcholine receptor M1; format: functional, cell-based; remark: listed apart in the source
[5] = target: Vascular endothelial growth factor receptor 2 (Homo sapiens, UniProt P35968); format: functional
Sequence of Vascular endothelial growth factor receptor 2 (P35968 whole entry): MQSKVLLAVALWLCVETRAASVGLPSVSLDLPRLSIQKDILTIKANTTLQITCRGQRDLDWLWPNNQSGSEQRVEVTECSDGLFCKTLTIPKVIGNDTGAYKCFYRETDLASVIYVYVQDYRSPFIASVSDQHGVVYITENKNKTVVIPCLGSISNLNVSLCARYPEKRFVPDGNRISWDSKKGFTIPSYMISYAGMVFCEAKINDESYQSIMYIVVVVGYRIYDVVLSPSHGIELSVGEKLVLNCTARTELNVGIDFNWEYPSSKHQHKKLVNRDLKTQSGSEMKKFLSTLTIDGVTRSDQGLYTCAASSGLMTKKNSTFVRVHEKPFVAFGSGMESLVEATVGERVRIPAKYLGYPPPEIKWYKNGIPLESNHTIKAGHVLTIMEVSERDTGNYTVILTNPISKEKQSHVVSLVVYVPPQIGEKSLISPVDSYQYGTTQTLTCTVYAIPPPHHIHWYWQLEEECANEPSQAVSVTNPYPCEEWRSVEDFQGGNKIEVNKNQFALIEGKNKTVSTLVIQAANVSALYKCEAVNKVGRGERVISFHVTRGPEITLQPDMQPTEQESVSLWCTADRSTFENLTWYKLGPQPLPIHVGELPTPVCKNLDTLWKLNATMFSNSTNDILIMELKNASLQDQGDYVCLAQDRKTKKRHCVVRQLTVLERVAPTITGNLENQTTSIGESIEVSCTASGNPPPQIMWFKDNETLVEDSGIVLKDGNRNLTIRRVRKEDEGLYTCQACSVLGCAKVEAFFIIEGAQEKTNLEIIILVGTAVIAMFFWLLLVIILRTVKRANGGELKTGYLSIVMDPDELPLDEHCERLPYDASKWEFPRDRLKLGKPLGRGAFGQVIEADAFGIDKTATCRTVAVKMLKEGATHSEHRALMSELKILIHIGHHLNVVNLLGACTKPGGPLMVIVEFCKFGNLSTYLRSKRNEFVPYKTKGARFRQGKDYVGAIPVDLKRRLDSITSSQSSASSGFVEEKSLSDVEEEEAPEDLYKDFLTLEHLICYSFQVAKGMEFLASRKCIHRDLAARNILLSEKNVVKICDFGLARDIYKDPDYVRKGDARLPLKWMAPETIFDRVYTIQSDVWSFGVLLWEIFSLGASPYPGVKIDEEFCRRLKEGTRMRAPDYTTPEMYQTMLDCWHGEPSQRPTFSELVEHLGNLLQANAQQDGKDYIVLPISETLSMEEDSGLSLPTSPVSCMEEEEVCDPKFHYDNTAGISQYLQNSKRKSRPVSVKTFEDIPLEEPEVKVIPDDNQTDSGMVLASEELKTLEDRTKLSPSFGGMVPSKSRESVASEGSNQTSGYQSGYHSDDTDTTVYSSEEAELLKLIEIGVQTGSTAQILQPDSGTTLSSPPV

[6] = target: T3, Alpha-2C adrenergic receptor (Homo sapiens, UniProt P18825); format: functional
T3 sequence (P18825 whole entry): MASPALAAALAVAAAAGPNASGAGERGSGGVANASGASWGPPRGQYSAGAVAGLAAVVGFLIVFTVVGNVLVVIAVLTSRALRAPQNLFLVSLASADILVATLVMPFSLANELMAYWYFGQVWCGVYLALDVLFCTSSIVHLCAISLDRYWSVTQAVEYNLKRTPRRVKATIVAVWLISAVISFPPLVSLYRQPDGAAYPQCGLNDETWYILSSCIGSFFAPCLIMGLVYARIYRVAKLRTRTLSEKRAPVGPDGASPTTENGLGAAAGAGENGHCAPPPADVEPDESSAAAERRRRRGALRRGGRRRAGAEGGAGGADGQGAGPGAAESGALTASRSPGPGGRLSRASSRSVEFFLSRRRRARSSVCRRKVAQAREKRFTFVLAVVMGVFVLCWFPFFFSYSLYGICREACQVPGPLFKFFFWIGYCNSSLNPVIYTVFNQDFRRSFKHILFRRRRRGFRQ

[7] = target: Adenosine receptor A2a (Homo sapiens, UniProt P29274)
Sequence of Adenosine receptor A2a (P29274 whole entry): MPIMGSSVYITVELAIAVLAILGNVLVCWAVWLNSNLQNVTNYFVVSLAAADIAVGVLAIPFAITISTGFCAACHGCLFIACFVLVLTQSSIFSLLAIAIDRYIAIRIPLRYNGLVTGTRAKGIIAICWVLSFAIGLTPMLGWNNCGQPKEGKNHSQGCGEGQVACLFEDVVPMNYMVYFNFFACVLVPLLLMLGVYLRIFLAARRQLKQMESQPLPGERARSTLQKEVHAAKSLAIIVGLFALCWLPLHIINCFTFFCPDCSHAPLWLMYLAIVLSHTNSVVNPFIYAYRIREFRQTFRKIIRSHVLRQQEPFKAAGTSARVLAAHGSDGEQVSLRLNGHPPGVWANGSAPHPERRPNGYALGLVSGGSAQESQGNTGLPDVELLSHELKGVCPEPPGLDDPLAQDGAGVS

[8] = target: T4, Adenosine receptor A1 (Homo sapiens, UniProt P30542)
T4 sequence (P30542 whole entry): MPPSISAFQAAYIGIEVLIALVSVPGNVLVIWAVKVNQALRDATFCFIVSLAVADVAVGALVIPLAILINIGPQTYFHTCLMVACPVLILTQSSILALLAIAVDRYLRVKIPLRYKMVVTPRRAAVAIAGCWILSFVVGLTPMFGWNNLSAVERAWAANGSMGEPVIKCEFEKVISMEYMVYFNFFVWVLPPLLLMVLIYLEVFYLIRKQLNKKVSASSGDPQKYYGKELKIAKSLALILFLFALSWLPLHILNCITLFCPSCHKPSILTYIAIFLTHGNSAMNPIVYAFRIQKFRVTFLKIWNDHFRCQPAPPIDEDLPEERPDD

[9] = target: T5, 5-hydroxytryptamine receptor 1A (Homo sapiens, UniProt P08908); format: functional, cell-based
T5 sequence (P08908 whole entry): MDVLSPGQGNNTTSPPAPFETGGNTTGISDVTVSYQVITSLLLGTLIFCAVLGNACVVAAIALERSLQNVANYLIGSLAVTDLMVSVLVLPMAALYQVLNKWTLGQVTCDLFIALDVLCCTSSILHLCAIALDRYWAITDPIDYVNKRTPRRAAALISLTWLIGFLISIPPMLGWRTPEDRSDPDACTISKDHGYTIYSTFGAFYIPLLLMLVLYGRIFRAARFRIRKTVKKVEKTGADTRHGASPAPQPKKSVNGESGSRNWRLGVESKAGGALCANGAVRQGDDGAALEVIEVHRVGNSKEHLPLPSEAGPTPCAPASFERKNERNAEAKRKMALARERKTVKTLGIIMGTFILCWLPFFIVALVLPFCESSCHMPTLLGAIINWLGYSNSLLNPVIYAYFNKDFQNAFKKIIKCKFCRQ

[10] = target: 5-hydroxytryptamine receptor 2B (Homo sapiens, UniProt P41595); format: functional, cell-based
Sequence of 5-hydroxytryptamine receptor 2B (P41595 whole entry): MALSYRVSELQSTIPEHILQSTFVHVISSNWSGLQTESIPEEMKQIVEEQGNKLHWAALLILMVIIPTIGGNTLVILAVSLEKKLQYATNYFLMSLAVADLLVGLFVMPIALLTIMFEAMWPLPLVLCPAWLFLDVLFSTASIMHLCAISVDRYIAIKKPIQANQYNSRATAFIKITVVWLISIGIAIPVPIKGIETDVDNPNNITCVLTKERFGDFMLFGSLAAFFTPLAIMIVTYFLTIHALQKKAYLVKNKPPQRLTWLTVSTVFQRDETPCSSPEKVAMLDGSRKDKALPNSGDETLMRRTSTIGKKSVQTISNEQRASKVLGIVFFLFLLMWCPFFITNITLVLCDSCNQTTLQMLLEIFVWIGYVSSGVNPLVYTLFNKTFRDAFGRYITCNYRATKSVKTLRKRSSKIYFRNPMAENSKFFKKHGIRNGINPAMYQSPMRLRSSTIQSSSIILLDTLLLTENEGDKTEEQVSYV

[11] = target: Melanocortin receptor 3 (Homo sapiens, UniProt P41968)
Sequence of Melanocortin receptor 3 (P41968 whole entry): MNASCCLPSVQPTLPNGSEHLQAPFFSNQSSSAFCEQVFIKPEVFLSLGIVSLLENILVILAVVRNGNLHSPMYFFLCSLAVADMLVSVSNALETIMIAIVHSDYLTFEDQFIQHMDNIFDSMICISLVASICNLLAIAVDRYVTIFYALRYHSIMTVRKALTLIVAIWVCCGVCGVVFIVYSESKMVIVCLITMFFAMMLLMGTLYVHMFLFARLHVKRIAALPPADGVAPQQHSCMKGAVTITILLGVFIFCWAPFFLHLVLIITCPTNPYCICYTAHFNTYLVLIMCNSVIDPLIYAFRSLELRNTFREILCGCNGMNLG

[12] = target: 3',5'-cyclic-AMP phosphodiesterase 4D (Homo sapiens, UniProt Q08499); format: functional
Sequence of 3',5'-cyclic-AMP phosphodiesterase 4D (Q08499 whole entry): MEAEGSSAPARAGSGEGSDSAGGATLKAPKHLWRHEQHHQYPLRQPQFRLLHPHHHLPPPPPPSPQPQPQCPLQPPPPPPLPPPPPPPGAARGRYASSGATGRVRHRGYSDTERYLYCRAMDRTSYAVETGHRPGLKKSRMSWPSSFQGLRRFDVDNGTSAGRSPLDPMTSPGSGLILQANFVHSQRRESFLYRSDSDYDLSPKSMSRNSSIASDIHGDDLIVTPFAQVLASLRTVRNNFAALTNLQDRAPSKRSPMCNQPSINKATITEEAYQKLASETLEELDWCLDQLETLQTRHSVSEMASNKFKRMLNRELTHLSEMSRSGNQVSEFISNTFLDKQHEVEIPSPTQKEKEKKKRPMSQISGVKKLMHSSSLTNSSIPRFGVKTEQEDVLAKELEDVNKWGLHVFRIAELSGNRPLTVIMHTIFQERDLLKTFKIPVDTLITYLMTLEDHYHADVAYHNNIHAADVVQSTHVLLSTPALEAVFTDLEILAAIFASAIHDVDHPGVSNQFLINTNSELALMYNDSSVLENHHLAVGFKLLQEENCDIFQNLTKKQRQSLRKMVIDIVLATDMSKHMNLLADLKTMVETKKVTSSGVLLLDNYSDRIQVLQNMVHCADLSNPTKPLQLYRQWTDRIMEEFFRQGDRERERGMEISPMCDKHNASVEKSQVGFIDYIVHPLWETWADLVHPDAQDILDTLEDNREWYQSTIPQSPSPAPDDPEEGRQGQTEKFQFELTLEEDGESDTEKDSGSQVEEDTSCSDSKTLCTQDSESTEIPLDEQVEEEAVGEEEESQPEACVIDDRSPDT

[13] = target: Growth hormone secretagogue receptor type 1 (Homo sapiens, UniProt Q92847)
Sequence of Growth hormone secretagogue receptor type 1 (Q92847 whole entry): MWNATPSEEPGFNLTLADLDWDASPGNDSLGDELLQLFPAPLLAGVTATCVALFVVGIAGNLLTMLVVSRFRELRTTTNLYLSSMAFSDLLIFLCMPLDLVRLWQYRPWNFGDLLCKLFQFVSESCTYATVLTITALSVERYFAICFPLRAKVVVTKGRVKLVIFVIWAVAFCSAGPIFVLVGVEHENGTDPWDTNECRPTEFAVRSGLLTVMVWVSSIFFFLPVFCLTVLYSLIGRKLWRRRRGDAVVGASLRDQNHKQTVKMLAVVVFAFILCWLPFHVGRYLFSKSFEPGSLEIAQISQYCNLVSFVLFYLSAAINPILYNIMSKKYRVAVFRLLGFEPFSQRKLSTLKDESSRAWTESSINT
Also: assay procedure not described here.

Sequence of 3',5'-cyclic-AMP phosphodiesterase 4A (P27815 whole entry): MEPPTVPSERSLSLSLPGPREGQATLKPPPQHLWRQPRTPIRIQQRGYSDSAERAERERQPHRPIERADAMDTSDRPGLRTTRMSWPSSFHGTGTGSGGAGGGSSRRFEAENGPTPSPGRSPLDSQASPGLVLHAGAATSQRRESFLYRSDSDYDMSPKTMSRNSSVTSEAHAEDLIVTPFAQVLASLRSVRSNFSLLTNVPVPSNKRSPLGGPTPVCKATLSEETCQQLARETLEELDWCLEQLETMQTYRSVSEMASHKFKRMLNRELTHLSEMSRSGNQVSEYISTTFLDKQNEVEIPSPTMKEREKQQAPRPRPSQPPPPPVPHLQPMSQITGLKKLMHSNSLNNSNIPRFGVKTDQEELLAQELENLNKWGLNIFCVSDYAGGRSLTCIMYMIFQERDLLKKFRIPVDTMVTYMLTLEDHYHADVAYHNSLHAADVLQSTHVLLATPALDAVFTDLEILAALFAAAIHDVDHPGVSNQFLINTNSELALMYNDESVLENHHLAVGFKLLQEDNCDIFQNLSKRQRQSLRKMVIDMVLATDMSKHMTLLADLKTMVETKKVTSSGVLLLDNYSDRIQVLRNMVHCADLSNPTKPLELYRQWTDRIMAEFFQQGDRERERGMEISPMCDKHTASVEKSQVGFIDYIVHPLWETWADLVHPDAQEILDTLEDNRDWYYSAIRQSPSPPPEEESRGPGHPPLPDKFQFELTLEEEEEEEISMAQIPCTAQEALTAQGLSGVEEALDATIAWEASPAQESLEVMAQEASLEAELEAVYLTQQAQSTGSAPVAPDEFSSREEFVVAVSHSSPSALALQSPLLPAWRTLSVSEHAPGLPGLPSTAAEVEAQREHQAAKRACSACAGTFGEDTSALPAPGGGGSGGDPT

SMILES	AC50 [1]	AC50 [2]	AC50 [3]	AC50 [4]	AC50 [5]	AC50 [6]	AC50 [7]	AC50 [8]	AC50 [9]	AC50 [10]	AC50 [11]	AC50 [12]	AC50 [13]
Nc1nc(N)nc(Nc2ccc([As]3SCC(CO)S3)cc2)n1 (stereo not given) [MELARSOPROL]	14.5 µM	> 30 µM	> 30 µM	22.5 µM									
Cc1cc(CCN2CCN(c3cccc(Cl)c3)CC2)n[nH]1 [MEPIPRAZOLE]	> 30 µM	> 30 µM		26.3 µM	> 30 µM								
CC1(C)S[C@@H]2[C@H](NC(=O)[C@H](NC(=O)N3CCN(S(C)(=O)=O)C3=O)c3ccccc3)C(=O)N2[C@H]1C(=O)O [MEZLOCILLIN]	> 30 µM	> 30 µM	> 30 µM	> 30 µM									
c1ccc2c(CC3=NCCN3)cccc2c1 [NAPHAZOLINE]	> 30 µM	> 30 µM		> 30 µM	> 30 µM	0.33 µM							
CNC(=O)Oc1ccc2c(c1)[C@]1(C)CCN(C)[C@@H]1N2C [PHYSOSTIGMINE]	> 30 µM		> 30 µM		> 30 µM	> 30 µM	> 30 µM	> 30 µM	> 30 µM	> 30 µM	> 30 µM	> 30 µM	> 30 µM
COCCCOc1ccnc(C[S+]([O-])c2nc3ccccc3[nH]2)c1C (stereo not given) [RABEPRAZOLE]	> 30 µM		> 30 µM			> 10 µM	> 30 µM	22.5 µM	> 10 µM	12 µM	> 30 µM	8 µM	> 30 µM
O=C(NC(Cc1cc(=O)[nH]c2ccccc12)C(=O)O)c1ccc(Cl)cc1 (stereo not given) [REBAMIPIDE]	> 30 µM	> 30 µM	> 30 µM	> 30 µM									
CO[C@H]1/C=C/O[C@@]2(C)Oc3c(C)c(O)c4c(O)c(cc(O)c4c3C2=O)NC(=O)/C(C)=C\C=C\[C@H](C)[C@H](O)[C@@H](C)[C@@H](O)[C@@H](C)[C@H](OC(C)=O)[C@@H]1C [RIFAMYCIN]	> 30 µM	11.6 µM			> 30 µM								
O=C(Oc1ccccc1C(=O)O)c1ccccc1O [SALSALATE]	> 30 µM		> 30 µM		> 30 µM								
CCOC(=O)[C@H](CCc1ccccc1)N[C@H]1CS[C@H](c2cccs2)CN(CC(=O)O)C1=O [TEMOCAPRIL]	> 10 µM	> 30 µM	> 30 µM	> 30 µM									
c1ccc2[nH]c(-c3cscn3)nc2c1 [THIABENDAZOLE]	> 30 µM		> 30 µM		> 30 µM								
CCSc1ccc2c(c1)N(CCCN1CCN(C)CC1)c1ccccc1S2 [THIETHYLPERAZINE]	> 30 µM	29.1 µM			> 30 µM	2.2 µM	> 30 µM				18 µM	16 µM	
C[C@@H]1C[C@H]2[C@@H]3CCC4=CC(=O)C=C[C@]4(C)C3=CC[C@]2(C)[C@H]1C(=O)CN1CCN(c2cc(N3CCCC3)nc(N3CCCC3)n2)CC1 [TIRILAZAD]	19.4 µM		> 30 µM		> 30 µM								
